Values quoted from earlier work as cited in US20170202932A1, “METHODS FOR INHIBITING NEURON APOPTOSIS AND NECROSIS” (NEWSOUTH INNOVATIONS PTY LIMITED, priority 2012, published 2017).

How the values were obtained:
TRPC3 = molecular target: T1, TRPC3 (Homo sapiens, UniProt Q13507); conditions: cited from earlier work
T1 sequence (Q13507 1-921): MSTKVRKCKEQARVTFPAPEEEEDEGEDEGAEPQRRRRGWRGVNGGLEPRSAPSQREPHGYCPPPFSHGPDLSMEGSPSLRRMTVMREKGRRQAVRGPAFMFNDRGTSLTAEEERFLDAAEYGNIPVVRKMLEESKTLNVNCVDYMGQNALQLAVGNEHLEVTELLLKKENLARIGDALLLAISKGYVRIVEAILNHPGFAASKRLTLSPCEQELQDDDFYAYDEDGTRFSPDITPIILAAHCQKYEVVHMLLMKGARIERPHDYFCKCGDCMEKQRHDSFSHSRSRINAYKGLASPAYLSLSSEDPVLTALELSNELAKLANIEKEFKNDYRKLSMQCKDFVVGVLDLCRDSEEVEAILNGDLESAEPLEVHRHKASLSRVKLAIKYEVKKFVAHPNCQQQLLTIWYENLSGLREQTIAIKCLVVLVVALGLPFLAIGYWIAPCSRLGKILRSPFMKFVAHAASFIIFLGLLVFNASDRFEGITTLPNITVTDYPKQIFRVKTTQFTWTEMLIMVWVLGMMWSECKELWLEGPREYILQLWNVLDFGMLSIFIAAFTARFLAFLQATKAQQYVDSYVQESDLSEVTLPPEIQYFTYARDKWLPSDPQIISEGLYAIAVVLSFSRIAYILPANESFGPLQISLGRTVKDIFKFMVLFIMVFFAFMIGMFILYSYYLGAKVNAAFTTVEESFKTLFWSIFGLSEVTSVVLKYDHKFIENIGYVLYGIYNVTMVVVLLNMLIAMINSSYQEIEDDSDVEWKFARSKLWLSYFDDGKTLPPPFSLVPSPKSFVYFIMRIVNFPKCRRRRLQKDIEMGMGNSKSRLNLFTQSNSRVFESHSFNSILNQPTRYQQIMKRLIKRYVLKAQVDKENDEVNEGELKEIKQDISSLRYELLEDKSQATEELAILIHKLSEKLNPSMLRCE

other TRPC channels = conditions: cited from earlier work

For CCOC(=O)c1cnn(-c2ccc(NC(=O)C(Cl)=C(Cl)Cl)cc2)c1C(F)(F)F [Pyr3, ethyl-1-(4-(2,3,3-trichloroacrylamide)phenyl)-5-(trifluoromethyl)-1H-pyrazole-4-carboxylate], the “inhibition of TRPC3-mediated Ca2+ influx” value (TRPC3) is listed as “selectively inhibit” and the “effect on other TRPC channels” value (other TRPC channels) is listed as “no effect”.
